Patent publication US8242289B2, “Alkyl-substituted tetrahydropyrans as flavoring substances” (SYMRISE AG, priority 2009, dated 2012)

Test: Sensory comparison of flavored products with the flavor not according to the invention
Assay type: in vivo

CCC1OC(C)(CC)CCC1C(C)C (stereo not shown) [2,6-diethyl-5-isopropyl-2-methyl-tetrahydropyran]
feeling of freshness (standard chewing gum (Example 2.12), 2% flavor composition): more intense feeling of freshness | fullness in the mouth (standard chewing gum (Example 2.12), 2% flavor composition, in particular at the start of chewing): greater fullness in the mouth | boost effect (sugar-free chewing gum (Example 2.11), 1% cinnamon type cool flavor): distinct “boost effect” | feeling of freshness (sugar-free chewing gum (Example 2.11), 1% flavor composition, in particular initial phase of consumption): more intense feeling of freshness | feeling in the mouth (toothpaste 'silica opaque' (Example 2.15), 1% flavor composition): fresher feeling in the mouth | fullness in the mouth (toothpaste 'silica opaque' (Example 2.15), 1% flavor composition, during brushing): increased fullness in the mouth | feeling of freshness (toothpaste, phosphate base (Example 2.13), 1% flavor composition, in particular at the start of brushing): distinct feeling of freshness | effect of the flavor when brushing (toothpaste, phosphate base (Example 2.13), 1% spearmint type flavor): intensified effect of the flavor when brushing | retronasal cooling (toothpaste, transparent gel (Example 2.14), 1% flavor composition): distinct retronasal cooling | freshness profile (toothpaste, transparent gel (Example 2.14), 1% flavor composition, during brushing): clearer freshness profile
